Data set [1] concerns SUM149 and MDA-MB 468 xenografts. The data set is described as follows: PTEN-mutant triple-negative breast cancer xenografts. It is filed as in vivo, nu/nu mice. The procedure:
FIG. 3B is a graph showing the tumor volume of PTEN-mutant triple-negative breast cancer cell line SUM149 xenografts. […] FIG. 3C is a graph showing the relative luminescence of PTEN-mutant triple-negative breast cancer cell line MDA-MB 468 xenografts expressing luciferase. […] Radiance was measured on days 0, 7, 14, and 21, quantified as photons/second/cm^2/steradian. FIG. 3D: luminescence of treated and control mice after 2 weeks of treatment. Data shown as mean+SD for FIG. 3A and +SEM for FIGS. 3B and 3C.
FIG. 9A is an immunoblot of PTEN in the four patient-derived glioblastomas in FIG. 3A. […] Tumor size was measured by assessing luminescence, quantified by photons/second/cm^2/steradian (n=2). […] Tumor volume was measured by calipers. Growth rate of the tumors was determined by calculating the slope of the tumor growth (Student's t-test, *p<0.01, n=8). Data shown as means±SEM.
6-week old nu/nu mice (Jackson Laboratory, 20-25 g weight each) were engrafted orthotopically with either 5 million SUM149, 5 million MDAMB 468-luciferase, 1 million MCCL-357, or 0.75 million MCCL-278 cells. […] Luminescence was measured on days 0, 7, 14, and 21, quantified as photons/second/cm^2/steradian, and normalized to baseline.

For data set [2], the system named is gamma-H2AX. In words: Gamma-H2AX measurement of DNA damage by flow cytometry. The format is cell-based. The note with it: 100 μM leflunomide 48 h or A771726. The procedure:
(§1) FIG. 4A is a graph showing positively-stained cells labeled with a gamma-H2AX antibody; cells were analyzed by flow cytometry (Student's t-test, *p<0.05, n=3). […] The mean fluorescence intensity (MFI) was determined using flow cytometry (Student's t-test, *p<0.01, n=3). FIG. 4C is a series of representative photographs showing MEFs treated with 150 μM A771726 for 24 h and labeled with EdU and gamma-H2AX. Left: representative confocal microscopy images. Right: quantified EdU and gamma-H2AX colocalized foci (Student's t-test, *p<0.05, n=3). […] Left: representative confocal microscopy images. Right: quantification of the number of foci per cell (Student's t-test, p>0.05, n=6). FIG. 4E is a graph showing the percentage of cells treated with 150 μM A771726 for times indicated and labeled with antibodies to RPA and gamma-H2AX positively staining for RPA alone or both RPA and gamma-H2AX; cells were analyzed by flow cytometry (Student's t-test, *p<0.05, n=4). […] FIGS. 4G and 4H are graphs quantifying the number of chromosomal breaks and multiradial formations per haploid genome (Student's t-test, *p-values on figure, cells scored/replicate>100). […]
(§2) FIG. 10D is a bar graph showing a quantitative depiction of the percent cell area with EdU-staining from images in FIG. 4D, used to normalize foci to cell size (Student's t-test, p>0.05, not significant, n=6). […]
On the technique in general: In flow cytometry, cells or beads pass a laser one at a time.

The subject of data set [3] is Pten^−/− MEFs. The data set is described as follows: EdU detection of replication forks in MEFs. The note with it: after 24 h of treatment with leflunomide. The format is cell-based, mouse. The procedure: as §1, §2
The subject of data set [4] is Pten^−/− MEFs, PTEN-mutant human breast cancer cell lines, and Pten^−/− mouse breast lines. In words: Cell death accumulation by live-cell imaging with DRAQ7. Conditions: 100 uM leflunomide and DRAQ7, 6 h intervals; PTEN-deficient versus WT cells. It is filed as cell-based. An excerpt:
(§3) FIG. 2F is a graph comparing various human breast cancer cell line growth rates. FIG. 2G is a series of immunoblots of pAKT in nuclear fractions of Pten^−/− and Pik3ca mutant MEFs. […] Data shown as mean+SD.
(§4) FIG. 7C, FIG. 7D, and FIG. 7E are series of bar graphs depicting the GI50s of cells treated with dose titrations of DHODH inhibitors as indicated (Student's t-test, *p-values as reported on the figures, n=3). […] FIG. 7G depicts the confluence of MCCL-278 and MCCL-357 breast cells. FIG. 7H depicts the confluence of Myc-CaP and CaP8 prostate cells. FIG. 7I is an immunoblot of pAKT in MCCL-278 and MCCL-357 breast cells. FIG. 7J is an immunoblot of pAKT in nuclear fractions of MCCL-278 and MCCL-357 breast cells. Data shown as means±SD.
(§5) Cells were plated in 96-well plates at a density of 1500 or 3000 cells per well. […] Sensitivity was determined by a dose-response titration for each cell line, with an equivalent amount of DMSO in each well. For cell death assays, DRAQ7™ (Cell Signaling 7406S) was added to the media at a 1:200 dilution and red fluorescence was measured in addition to phase in live-cell imaging to measure accumulation of dead cells. An IncuCyte ZOOM was used.

Data set [5] relates to human breast, mouse breast, or mouse prostate tumor cell lines. In words: Proliferation rates of tumor cell lines versus leflunomide sensitivity. The format is cell-based.
Text: as §3, §4
(§6) 1500 cells per well (mouse cells) or 3000 cells per well (human cells) were plated in 96-well plates (Corning 720089). Growth rates were determined using the phase-confluency readings on an IncuCyte ZOOM (Essen Biosciences) on live cells over time.

Data set [6] concerns MCCL-357 (Myc, Pten^−/−), CaP8 (PTEN^−/−), MCCL-278 (Myc, Pik3ca H1047R) and Myc-CaP (Myc). The data set is described as follows: Drug response assay (GI50) in mouse cancer lines. The format is cell-based. Conditions: Myc-CaP prostate cells (FIG. 7D).
Text: as §3, §4, §5

The conditions of data set [7]: in vivo; cited from earlier work.
The test system of data set [8] is Pten^−/− and WT MEFs. In words: Drug response assay (GI50 dose titration) in Pten WT and KO MEFs. The format is cell-based, mouse. Conditions: for differential sensitivity of Pten^−/− versus WT MEFs: GI50 dose titration (FIG. 8, E-F). On the procedure:
as §3, §6, §5

For data set [9], the system named is PTEN-deficient cells. In words: Orotate rescue of growth inhibition by leflunomide. The format is cell-based. The note with it: increasing concentrations of orotate with 25 or 50 μM leflunomide; confluence after 5 days.
Text: as §3
Note that here as well as in FIG. 2, H-I, a large amount of DMSO was used in each condition to match the amount of orotate needed, narrowing the growth differential normally observed between leflunomide-treated and untreated cells in the PTEN mutant setting. FIG. 8B is a bar graph and immunoblot depicting cells transfected with siRNA against DHODH. The bar graph depicts cell viability measured using annexin V and 7AAD. 0.5 μg/mL actinomycin D was a positive control for cell death. (Students t-test, *p<0.05, n=3). […] FIG. 8C is an immunoblot of DHODH in Pten KO and WT cells. FIG. 8D is an immunoblot of pAKT in Pten KO and WT cells with or without treatment with 50 μM A771726. FIG. 8E and FIG. 8F are bar graphs depicting the GI50s of cells treated with dose titrations of 5-fluorouracil or mercaptopurine, respectively (Student's t-test, p>0.05, n=3). FIG. 8G depicts the confluence of prostate cells grown in media containing full glutamine (4 mM) or no added glutamine. Data shown as means±SD.
Orotate (Sigma O2750) was dissolved in DMSO.

Data set [10] concerns Pten^−/− and WT MEFs. The data set is described as follows: Growth of Pten WT and KO MEFs with glutaminase inhibitor (proliferation assay). The format is cell-based, mouse. Conditions: 12.5 nM CB-839 (FIG. 1F). The procedure:
FIG. 1A is a graph comparing the growth of Pten wild-type (WT) and KO MEFs (one-way ANOVA, *p<0.0001, n=3). FIG. 1B is a series of representative confocal microscopy photographs showing MEFs labeled with EdU. FIG. 1C is a graph showing a quantitative depiction of the photographs in FIG. 1B (Student's t-test, *p<0.05, n=6). FIG. 1D is a graph showing a quantitative depiction of the mean fluorescence intensity of MEFs labeled with EdU; cells were analyzed by flow cytometry (Student's t-test, *p<0.01, n=3). FIG. 1E is a series of representative photographs showing Pten WT and KO MEFs in media containing full glutamine ([…]) or no added glutamine (one-way ANOVA, *p<0.0001, n=3). […] FIG. 1G is a graph comparing the relative metabolite concentrations of DNA nucleotide precursors in Pten WT and KO MEFs (dGMP was unable to be measured so dGTP was used instead) (Student's t-test, *p<0.05, n=3). […] Data were also analyzed with IMPaLA: ^13C glutamine-derived pyrimidine metabolism enrichment in PTEN^−/− MEFs q-value=3.92×10^−09. […]
1500 cells per well (mouse cells) or 3000 cells per well (human cells) were plated in 96-well plates (Corning 720089). Growth rates were determined using the phase-confluency readings on an IncuCyte ZOOM (Essen Biosciences) on live cells over time. […]

Turning to `Cc1oncc1C(=O)Nc1ccc(C(F)(F)F)cc1` [leflunomide], the “tumor growth upon treatment” value in data set [1] (100 mg/kg oral leflunomide, two PTEN-mutant triple-negative breast cancer xenografts) is listed as “slowed or regressed”. The “response of very large tumors (4×10^7 photons)” value in data set [1] (MDA-MB 468 xenografts grown seven weeks untreated, then 100 mg/kg leflunomide for 1 week) is recorded as “regressed after only 1 week of treatment”. Besides, the “DNA damage (gamma-H2AX) in PTEN-deficient versus WT cells” value in data set [2] was “augmented DNA damage to a significantly greater degree in PTEN-deficient cells”. Further, the “number of replication forks in Pten^−/− MEFs after treatment” value in [3] is “remained intact”. Moreover, the “accumulation of dead cells over time” value in [4] is “increased accumulation of dead cells over time”. Besides, the “association of sensitivity with proliferation rates of tumor cell lines” value in data set [5] is listed as “not associated with the proliferation rates”. In addition, the “sensitivity of Myc-CaP cells” value in [6] was “resistant”. For the same molecule, the half-life in [7] was roughly 2 weeks.
On to `O=c1[nH]cc(F)c(=O)[nH]1` [5-flurouracil, 5-fluorouracil], for which the “differential sensitivity of Pten^−/− versus WT MEFs” value in data set [8] is given as “did not show a differential sensitivity”.
As to `Cc1c(-c2ccc(-c3ccccc3F)cc2)nc2ccc(F)cc2c1C(=O)O` [brequinar], in [8] (GI50 dose titration (FIG. 2A)), the “sensitivity of Pten^−/− MEFs compared with WT MEFs” value was “more sensitive”.
For `O=C(O)c1cc(=O)[nH]c(=O)[nH]1` [orotate], in data set [9], the “rescue of growth inhibition by leflunomide” value is “rescued growth inhibition by leflunomide in a dose-dependent manner”.
For `O=C(Cc1cccc(OC(F)(F)F)c1)Nc1ccc(CCCCc2nnc(NC(=O)Cc3ccccn3)s2)nn1` [CB-839], the “growth difference between Pten^−/− and WT MEFs” value in data set [10] is reported as “sufficient to collapse the growth difference”.
Take `S=c1nc[nH]c2nc[nH]c12` [mercaptopurine]: the “differential sensitivity of Pten^−/− versus WT MEFs” value in data set [8] was “did not show a differential sensitivity”.

The record behind these values is US20250302817A1, “METHODS FOR TREATING PTEN-MUTANT TUMORS” (Icahn School of Medicine at Mount Sinai, priority 2016, published 2025).
